Where “and” joins values, the source holds several entries; their conditions need not be identical. Equal values may be shown once.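 Values below derive from 48-hour exposures of cells grown in 96-well plates, with endpoints linearly interpolated between the two concentrations bracketing the appropriate inhibition level. The concentration for 50% growth inhibition is given as GI50. At the TGI there is no net growth.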
How the values were obtained:
Assay in all cases: inhibition of tumour cell growth, NCI panel, 48 h
COLO 205 colon = system: COLO 205 colon
CCRF-CEM leukemia = system: CCRF-CEM leukemia
A498 renal = system: A498 renal
SW-620 colon = system: SW-620 colon
PC-3 prostate = system: PC-3 prostate
SN12C renal = system: SN12C renal
M14 melanoma = system: M14 melanoma
NCI-H460 lung = system: NCI-H460 lung
TK-10 renal = system: TK-10 renal
SK-OV-3 ovarian = system: SK-OV-3 ovarian

SMILES | GI50 (COLO 205 colon) [µM] | TGI (COLO 205 colon) [µM] | GI50 (CCRF-CEM leukemia) [µM] | TGI (CCRF-CEM leukemia) | GI50 (A498 renal) [µM] | TGI (A498 renal) | GI50 (SW-620 colon) [µM] | TGI (SW-620 colon) | GI50 (PC-3 prostate) [µM] | TGI (PC-3 prostate) [µM] | GI50 (SN12C renal) [µM] | TGI (SN12C renal) [µM] | GI50 (M14 melanoma) [µM] | TGI (M14 melanoma) | GI50 (NCI-H460 lung) [µM] | TGI (NCI-H460 lung) [µM] | GI50 (TK-10 renal) [µM] | TGI (TK-10 renal) | GI50 (SK-OV-3 ovarian) [µM] | TGI (SK-OV-3 ovarian) [µM]
O=c1ncc(-c2ccc(C(F)(F)F)cc2)c(NC2CCCCCC2)[nH]1 | 19.6 | 34.7 | 19.7 | 48 µM | 16.1 | 34 µM | 23.9 | 68.7 µM | 19 | 54.9 | 16.2 | 33 | 20.4 | 45.8 µM | 17.7 | 35 | 35.7 | 73.9 µM | 27.3 | 64.3
COc1cc2[nH]c(C(=O)c3cc(OC)c(OC)c(OC)c3)c(N)c2cc1C#CCO | 0.268 | 0.842 | 0.309 | > 100 µM | 0.23 | 2.14 µM | 0.294 | > 100 µM | 0.277 | > 100 | 1.4 | 98.3 | – | – | 0.394 | > 100 | 44.1 | > 100 µM | 0.482 | > 100
Cc1cc(Cl)ccc1Nc1sc(C(=O)c2cc3cc(Cl)ccc3o2)c(N)c1C#N | – | > 100 | – | > 52.8 µM | – | 19.2 µM | – | > 69.9 µM | – | > 100 | – | > 100 | – | > 100 µM | – | > 64.3 | – | > 73.1 µM | – | 57
CN1CCN(C(=O)c2ccc(NC(=O)Nc3ccc(N(C)c4ccnc(Nc5ccc(CS(C)(=O)=O)cc5)n4)cc3)cc2)CC1 | 13 | > 25 | 7.07 | > 25 µM | > 25 | > 25 µM | 11 | > 25 µM | 9.09 | > 25 | 9.42 | > 25 | > 23.2 | > 25 µM | 11.8 | > 25 | > 25 | > 25 µM | > 25 | > 25
Cc1cc(N(CCOS(C)(=O)=O)CCOS(C)(=O)=O)ccc1C=Nc1ccc(-c2csc(-c3ccccc3)n2)c(Cl)c1 | – | 10.2 | – | 23.3 µM | – | 4.67 µM | – | > 64.7 µM | – | 46.5 | – | 44 | – | 43.1 µM | – | 7.01 | – | 46.1 µM | – | 31.6
CS(=O)(=O)CCNCc1ccc(-c2ccc3ncnc(Nc4ccc(OCc5ccccc5)c(C(F)(F)F)c4)c3c2)o1 | 4.97 | 9.11 | 7.29 | > 23.1 µM | 6.51 | 25 µM | 4.62 | 8.66 µM | 6.88 | > 21 | 5.22 | 12.3 | 5.26 | 10.4 µM | 4.8 | 9.34 | 7.61 | 22.7 µM | 7.19 | > 22.1
CCCCCCCCCCCCCCCCC1=CC(=O)C=C(OC)C1=O | – | > 100 | – | > 100 µM | – | > 100 µM | – | > 100 µM | – | > 100 | – | > 100 | – | > 100 µM | – | > 100 | – | > 100 µM | – | > 100
C=C(C)C(=O)NC(N)=NC#N | 80.5 | 206 | – | 59.9 µM and 60.5 µM | 201 | > 46.4 µM and 345 µM | 41 | 39.4 µM and 170 µM | – | 293 | 72.1 | 199 | 21 | 47.8 µM and 131 µM | 163 | 306 | 33 | 98.6 µM and 126 µM | – | 308
O=C(O)C(=O)Cc1ccc2c(c1)OCO2 | – | > 100 | – | 67.1 µM | – | > 100 µM | – | > 100 µM | – | > 100 | – | > 100 | – | > 100 µM | – | > 100 | – | > 100 µM | – | > 100
CCC1CCc2nc3sc(C(=O)Nc4ccccc4F)c(N)c3cc2C1 (centres undefined) | 7.4 | > 100 | 1.72 | > 100 µM | 0.0575 | 0.689 µM | 0.819 | > 100 µM | 18.8 | > 100 | > 100 | > 100 | – | – | 2.71 | > 100 | – | – | > 100 | > 100
C#C[C@@]1(O)[C@@H](CO)O[C@@H](n2cc(Cl)c3c(N)ncnc32)[C@@H]1O | 0.106 | 0.379 | 0.248 | > 100 µM | 0.274 | 0.659 µM | 0.0709 | – | 0.191 | 4 | – | – | 0.177 | 0.585 µM | < 0.0215 | 0.412 | 0.317 | 1.24 µM | 0.143 | 0.517
O=c1[nH]cnc2c(C3OC(CO)C(O)C3O)[nH]nc12 (centres undefined) | – | > 100 | – | > 100 µM | – | > 100 µM | – | > 100 µM | – | > 100 | – | > 100 | – | > 100 µM | – | > 100 | – | – | – | 28.3
Oc1c(Br)cc(Br)cc1CN(Cc1cc(Br)cc(Br)c1O)C1CCCCC1 | – | 29.2 | – | – | – | 71.1 µM | – | > 100 µM | – | 50.5 | – | > 100 | – | > 100 µM | – | – | – | 61 µM | – | > 100
N=c1ccn2c(n1)OC1C(OP(=O)(O)O)C(CO)OC12 (centres undefined) | – | > 100 | – | – | – | > 100 µM | – | > 100 µM | – | > 100 | – | > 100 | – | > 45.8 µM | – | > 39.2 | – | > 100 µM | – | > 100
O=C1C=C(Nc2ccccc2)c2ncccc2C1=O | 1.95 | 3.92 | – | – | 1.64 | 3 µM | 0.34 | 1.28 µM | 0.439 | 2.29 | 0.29 | 0.829 | 0.352 | 1.17 µM | 0.35 | 1.11 | 1.82 | 3.28 µM | 1.75 | 3.16
CC(=O)[O-].CC(=O)[O-].[Mn+2].c1ccc(/C(=N\Nc2ccccn2)c2ccccn2)cc1 | – | – | – | 0.402 µM | – | 30.6 µM | 0.0535 | 14.5 µM | – | 14.5 | – | 6.83 | 0.0349 | 1.38 µM | – | 1.14 | – | 54.6 µM | 0.0509 | 17.5

From PubChem BioAssay (NCI)
